{"source": "the NIST ThermoML archive (doi:10.1016/j.fluid.2015.07.022)", "conditions": "298.15 K; for viscosity / mass density: 100 kPa, Liquid; for viscosity: Capillary tube (Ostwald / Ubbelohde) method; for mass density: Vibrating tube method", "key": {"[1]": {"conditions": "Kruss K11 tensiometer with Wilhelmy plate"}}, "note": "± gives the expanded uncertainty stated by the source."}
{"smiles": "O", "note": "[water]", "values": [{"measurement": "surface tension liquid-gas", "setting": "Kruss K11 tensiometer and Wilhelmy plate", "value": "72 ± 0.2", "unit": "mN/m"}, {"measurement": "viscosity", "value": "0.899 ± 0.01", "unit": "mPa·s"}]}
{"smiles": "CCCCCCCCCCCCCC[P+](CCCCCC)(CCCCCC)CCCCCC.N#C[N-]C#N", "note": "[tetradecyl(trihexyl)phosphonium dicyanamide]", "values": [{"measurement": "surface tension liquid-gas", "setting": "[1]", "value": "33.1 ± 0.4", "unit": "mN/m"}, {"measurement": "viscosity", "value": "437.8 ± 17", "unit": "mPa·s"}, {"measurement": "mass density", "value": "897.36 ± 0.72", "unit": "kg/m3"}]}
{"smiles": "CCCCCCCCCCCC", "note": "[dodecane]", "values": [{"measurement": "surface tension liquid-gas", "setting": "[1]", "value": "24.9 ± 0.2", "unit": "mN/m"}, {"measurement": "viscosity", "value": "1.359 ± 0.015", "unit": "mPa·s"}, {"measurement": "mass density", "value": "745.23 ± 0.14", "unit": "kg/m3"}]}
